This passage reports IC50 results from patent US5877334A, “Intermediates useful in solid phase synthesis method” (Abbott Laboratories, priority 1996, dated 1999).

A value given as a limit tells only on which side of the number the result lay.

In the assay the target is HIV1 protease (Human immunodeficiency virus type 1 group M subtype B, UniProt P04585). Put plainly: inhibition of HIV1 protease. The assay is classed as biochemical. The note with it: A. Mono-ol (X = H); read-out: IC50 against HIV1 protease, A. Mono-ol (X = H). The protocol: ^a The IC50 against HIV1 protease was measured according to the
method described in U.S. Pat. No. 5,354,866, issued October 11, 1994.
On to `CC(C)[C@H](NC(=O)Cc1csc(N)n1)C(=O)N[C@@H](Cc1ccccc1)C[C@H](O)[C@H](Cc1ccccc1)NC(=O)[C@@H](NC(=O)Cc1csc(N)n1)C(C)C` [Example 8A], for which the IC50 was under 1 nM.

On to `COc1cc(CC(=O)N[C@H](C(=O)N[C@@H](Cc2ccccc2)C[C@H](O)[C@H](Cc2ccccc2)NC(=O)[C@@H](NC(=O)Cc2cc(OC)c(OC)c(OC)c2)C(C)C)C(C)C)cc(OC)c1OC` [Example 9A], for which the IC50 was under 1 nM.

In the case of `CC(C)[C@H](NC(=O)CSc1ncccn1)C(=O)N[C@@H](Cc1ccccc1)C[C@H](O)[C@H](Cc1ccccc1)NC(=O)[C@@H](NC(=O)CSc1ncccn1)C(C)C` [Example 10A], the IC50 is under 1 nM.

As to `CC(C)[C@H](NC(=O)CC1NC(=O)NC1=O)C(=O)N[C@@H](Cc1ccccc1)C[C@H](O)[C@H](Cc1ccccc1)NC(=O)[C@@H](NC(=O)CC1NC(=O)NC1=O)C(C)C` (stereo partly shown) [Example 7A], the IC50 is under 1 nM.
